# Measurements published in patent publication US20200016207A1, “[…] c-MPL PROVIDES LIGAND-DEPENDENT CO-STIMULATION AND CYTOKINE SIGNALS TO TCR-ENGINEERED T CELLS” (Baylor College of Medicine, priority 2017, published 2020).
# How the values were obtained:
# [1] = tested on: immune synapses between TCR+c-MPL+ T cells and BV173 leukemia cells; test: Immunological synapse imaging (confocal microscopy); format: cell-based, human; conditions: mean±SD
# Procedure: T cells isolated from sequential killing co-cultures and fresh BV173 target cells were mixed at E:T 1:2, incubated for 10 minutes, fixed, permeabilized, stained with the appropriate antibodies, and analyzed on a Leica TCS SP8 laser scanning microscope. T cells were co-cultured with BV173 cells at an E:T ratio of 1:5 in CTL media with no cytokines, rhTPO (50 ng/mL) or EP (0.1 μg/mL). After one killing (no cytokine condition) or three sequential killings (rhTPO and EP conditions), cells were collected and dead cells removed (Dead Cell Removal Kit, Miltenyi) (FIG. 4A). For confocal microscopy, T cells and fresh BV173 target cells were mixed at E:T ratio of 1:2, incubated for ten minutes in a tube and ten minutes on silane-coated glass slides (Electron Microscopy Sciences) at 37° C. Cells were then permeabilized and fixed with Perm/Fix solution (BD) for 15 minutes at room temperature and stained with anti-Pericentrin (rabbit, Abcam) and anti-Perforin Alexa-488 (mouse, BD Biosciences) primary antibodies. Phalloidin 568 (Life Technologies) was used to detect F-actin. Cells were imaged as Z stacks of 0.2 μm thickness to cover their entire volume on a Leica TCS SP8 laser scanning microscope using a 100× objective. Images were acquired with the LASAF software (Leica) and analyzed with Imaris software (Imaris) and Fiji.
# c-MPL+ T cells = test: EP dose-titration, T cell expansion on OKT3/CD28-coated plates; format: cell-based, human
# Procedure: Similar results were obtained with the TPO small molecule agonist EP. A dose-titration experiment was used to determine the optimal concentration of EP to support c-MPL+ T cell expansion (FIG. 2C). EP was previously shown to inhibit leukemia cell proliferation at higher concentrations (1-10 μg/ml) by reduction of intracellular iron, a c-MPL independent effect (Roth et al., 2012). NT or c-MPL+ T cells were re-activated on OKT3/CD28-coated plates in the presence of different EP concentrations and expansion of viable T cells was determined after 7 days. […] Thus, the effective EP concentration for c-MPL+ T cells was about 1 log lower than in previous reports assessing effects of EP on megakaryocytic progenitor cells or leukemia cells *Roth et al., 2012; Will et al., 2009). To assess c-MPL ligand-dependent signaling in TCR+c-MPL+ T cells, cells were left untreated (noCK) or treated with TPO50 or EP for 1 (left) or 24 hours (right). […] Next, it was evaluated whether rhTPO enhanced the anti-tumor function of TCR+c-MPL+ T cells using two different HLA-A*0201+survivin+hematologic malignancies as targets (U266 multiple myeloma, BV173 leukemia) (FIGS. 2E-2F). […] Again, addition of IL2 led to significant but antigen-independent enhancement of T cell expansion.
# [2] = after three tumor cell challenges
# [3] = baseline after T cell expansion
smiles,measurement,setting,value
"CC1=NN(c2ccc(C)c(C)c2)C(=O)/C1=N\Nc1cccc(-c2cccc(C(=O)O)c2)c1O [EP, eltrombopag, reference compound]","MTOC to synapse distance, co-culture",[1]; [2],1.09±1.16 μm
same,"perforin distance to the synapse (perforin convergence), co-culture",[1]; [2],4.25±1.28 μm
same,"actin accumulation at the synapse, co-culture","[1]; after three tumor cell challenges, rhTPO 50 ng/mL or EP 0.1 μg/mL",53.29±12.47%
same,"MTOC to synapse distance, baseline",[1]; [3],2.42±2.14 μm
same,"actin accumulation at the synapse, baseline",[1]; [3],40.95±14.82%
same,"perforin distance to the synapse (perforin convergence), baseline",[1]; [3],4.26±2.04 μm
same,effect of EP treatment at 3 μg/ml on T cells,c-MPL+ T cells; 3 μg/ml,uniformly lethal to T cells
same,effect of EP levels higher than 0.1 μg/ml on T cells,c-MPL+ T cells; 7 days,toxic to the T cells
same,EP concentration retained to support c-MPL+ T cell expansion,"c-MPL+ T cells; 7 days, OKT3/CD28-coated plates",0.1 µg/mL
